The source of these data is article PMC9655968, “Synthesis of Novel Bromophenol with Diaryl Methanes—Determination of Their Inhibition Effects on Carbonic Anhydrase and Acetylcholinesterase” (Molecules, 2022).

Type in all cases: biochemical
The target of one experiment is hCA I (Homo sapiens, UniProt P00915). Briefly: biochemical. As to conditions: for IC50: esterase method; for Ki: from Lineweaver-Burk graphs, mean ± SD. As to the method:
(§1) […] Both hCA isoforms were purified by using the Sepharose-4B-L-Tyrosine-sulfanilamide affinity technique. Then, the purity of these CA isoenzymes was defined via the SDS-PAGE purity technique.
(§2) In order to investigate the in vitro inhibitory mechanisms of bromophenols (13–21), kinetic studies were performed at different concentrations of bromophenols and various substrates.

The target in the next experiment is hCA II (Homo sapiens, UniProt P00918). Kind of experiment: biochemical. As to conditions: for IC50: esterase method; for Ki: from Lineweaver-Burk graphs, mean ± SD. As to the method: as §1, §2
The target in another experiment is AChE (Electrophorus electricus, UniProt O42275). Kind of experiment: AChE inhibition, Ellman's method at 412 nm, acetylthiocholine iodide substrate. As to conditions: for IC50: Ellman's method; for Ki: from Lineweaver-Burk graphs, mean ± SD. As to the method: Acetylthiocholine iodide (AChI) was used as substrate, according to a prior study. […]
Chain of AChE (O42275 24-633): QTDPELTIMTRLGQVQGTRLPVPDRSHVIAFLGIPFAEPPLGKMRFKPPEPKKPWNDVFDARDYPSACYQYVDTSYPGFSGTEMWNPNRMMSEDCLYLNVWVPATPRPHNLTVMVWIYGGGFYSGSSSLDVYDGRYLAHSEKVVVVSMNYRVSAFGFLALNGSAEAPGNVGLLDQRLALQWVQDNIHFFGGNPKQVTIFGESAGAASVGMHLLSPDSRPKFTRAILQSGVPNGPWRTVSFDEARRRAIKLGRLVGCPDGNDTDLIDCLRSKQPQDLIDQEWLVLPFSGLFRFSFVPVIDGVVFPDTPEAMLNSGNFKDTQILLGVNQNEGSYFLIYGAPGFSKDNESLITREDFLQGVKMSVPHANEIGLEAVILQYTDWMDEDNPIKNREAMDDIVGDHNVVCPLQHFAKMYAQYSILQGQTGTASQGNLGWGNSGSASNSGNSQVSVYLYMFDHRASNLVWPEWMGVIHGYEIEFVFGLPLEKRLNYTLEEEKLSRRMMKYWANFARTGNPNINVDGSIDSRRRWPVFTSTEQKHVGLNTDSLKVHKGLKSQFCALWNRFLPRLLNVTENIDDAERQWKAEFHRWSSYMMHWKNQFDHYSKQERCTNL
as §2
For orientation: DTNB colorimetry detects thiols as they appear.

Setting [1] is: 19 and 21 compared (hydroxyl instead of methyl).

Chain of hCA I (P00915 whole entry, canonical isoform): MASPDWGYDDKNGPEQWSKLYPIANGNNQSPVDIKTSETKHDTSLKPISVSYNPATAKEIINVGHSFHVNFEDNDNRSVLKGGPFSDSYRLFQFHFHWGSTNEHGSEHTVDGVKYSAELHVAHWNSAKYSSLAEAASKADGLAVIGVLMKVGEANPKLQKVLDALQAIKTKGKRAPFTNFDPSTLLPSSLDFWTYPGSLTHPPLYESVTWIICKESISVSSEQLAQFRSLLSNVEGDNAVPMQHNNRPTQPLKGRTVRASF

“1-Bromo-4,5-dimethoxy-2-(5-methoxy-2-methylbenzyl)benzene [Compound 14]”: the “fold greater effect on inhibition, hCA I” value on hCA I (14 (methyl) compared with 16 (methoxy)) amounted to 5.06 fold. Also, the “fold difference in the inhibition value, hCA I” value at hCA I (compounds 14 and 19 compared) came to 8.04 fold. Moreover, the IC50 came to 19.8 nM at hCA I, 14.7 nM against hCA II and 11.9 nM on AChE. Also, the results for the Ki on hCA I, at hCA II and on AChE were 2.53 ± 0.25 nM, 4.28 ± 0.86 nM and 11.6 ± 2.75 nM, respectively.

Take “4-Bromo-5-(2-bromo-4-hydroxybenzyl)benzene-1,2-diol [Compound 19]”: at AChE, the concentration for half-maximal inhibition (IC50) worked out at 20.4 nM and affinity was put at a Ki of 17.4 ± 3.15 nM.

On hCA I, `COc1ccc(Cc2cc(OC)c(OC)cc2Br)c(Br)c1` [Compound 13, 1-Bromo-2-(2-bromo-4-methoxybenzyl)-4,5-dimethoxybenzene] registered an IC50 of 38.5 nM and a Ki of 25.7 ± 4.58 nM. On hCA II, this molecule displayed a 50% inhibitory concentration (IC50) of 21 nM and a Ki of 1.63 ± 0.11 nM.

Take `COc1cc(Cc2cc(OC)c(OC)cc2Br)c(OC)cc1Br` [Compound 15, 1-Bromo-2-(4-bromo-2,5-dimethoxybenzyl)-4,5-dimethoxybenzene]: at hCA I (15 compared with 16 (bromo group at 4th position)), the “fold decrease in the Ki value, hCA I” value turned out to be 1.37 fold. At hCA I, the IC50 worked out at 20.4 nM and the Ki stood at 9.35 ± 1.88 nM. Besides, on hCA II, half-maximal inhibition (IC50) was put at 15.1 nM and the affinity, expressed as Ki, was 2.62 ± 0.13 nM.

Take `COc1ccc(OC)c(Cc2cc(OC)c(OC)cc2Br)c1` [Compound 16, 1-Bromo-2-(2,5-dimethoxybenzyl)-4,5-dimethoxybenzene]: at hCA I, the IC50 was determined as 21 nM and the affinity corresponds to a Ki of 12.8 ± 0.52 nM. On hCA II, half-maximal inhibition (IC50) was put at 15.8 nM and the Ki worked out at 7.77 ± 0.57 nM.

Regarding `COc1cc(Br)c(Cc2ccc(OC)c(OC)c2OC)cc1OC` [Compound 17, 1-(2-bromo-4,5dimethoxybenzyl)-2,3,4-trimethoxybenzene], the half-inhibitory concentration (IC50) at hCA I amounted to 27.7 nM; against hCA II, 23.1 nM. The figures for the Ki at hCA I and on hCA II were 18.8 ± 4.97 nM and 10.3 ± 1.88 nM, respectively.

At hCA I, `Oc1ccc(Cc2cc(O)c(O)cc2Br)c(Br)c1` [Compound 18, 4-Bromo-5-(2-bromo-4-hydroxybenzyl)benzene-1,2-diol] had an IC50 of 15.4 nM and a Ki of 12.5 ± 0.66 nM. On hCA II, this molecule registered an IC50 of 11.4 nM and a Ki of 9.15 ± 1.36 nM.

In the case of `Oc1cc(Br)c(Cc2cc(O)c(Br)cc2O)cc1O` [Compound 20, 4-Bromo-5-(4-bromo-2,5-dihydroxybenzyl)benzene-1,2-diol], the figures for the half-inhibitory concentration (IC50) on hCA I and on hCA II were 19.3 nM and 14.1 nM, respectively. In addition, the Ki came out at 13.4 ± 2.29 nM on hCA I and 6.21 ± 1.01 nM at hCA II.

`Oc1ccc(O)c(Cc2cc(O)c(O)cc2Br)c1` [Compound 21, 4-Bromo-5-(2,5-dihydroxybenzyl)benzene-1,2-diol]: at hCA I, the IC50 turned out to be 12.4 nM and the inhibition constant (Ki) turned out to be 11 ± 3.83 nM. In addition, on hCA II (setting [1]), the “fold increase in the inhibition value, hCA II” value came to 3.03 fold. On hCA II, the half-inhibitory concentration (IC50) was 7.45 nM and the affinity corresponds to a Ki of 4.97 ± 0.59 nM. Also, at AChE (setting [1]), the “fold increase in the inhibition value, AChE” value is 2.67 fold.

A word on the IC50: it is the concentration that inhibits the measured activity by half. Read a low IC50 as greater potency in that assay. For orientation: Ki means the equilibrium dissociation constant of an inhibitor or competing ligand from its target.
